Tested on: organoids from classical versus basal-like tumors
Assay: IFNγ treatment of organoids from classical and basal-like tumors
Format: cell-based, human
Source text: FIG. 37—Micrographs and graph showing results of IFNγ treatment in organoids from classical and basal-like tumors.
Applicants next asked whether organoids from classical versus basal-like tumors respond differently to addition of IFNγ.

IFNγ: cytokine (type II interferon) added to organoid cultures
effect on expression state in organoids (classical expression state, patient-derived PDAC organoids (FIG. 37)): select against the classical expression state | return to a basal state (patient-derived PDAC organoids (FIG. 37)): may not be sufficient to drive complete return to a basal state | growth inhibition by IFNγ (patient-derived PDAC organoids, classical versus basal-like tumors, preliminary results (FIG. 37)): more pronounced in organoids derived from classical tumors
